Measured values taken from the supplement of paper PMC4858399.

Tests used:
Conditions in all cases: exposure time 48 h
[1] = test system: Caenorhabditis elegans N2; assay: mean nematode size ln(EXT) after 48 h, plate-adjusted (DMSO control set to 6) (ln(EXT), control-adjusted); higher = larger nematodes / less growth inhibition
Method in brief: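 In K-medium with killed OP50, 1% DMSO and 0.5–200 µM chemical, synchronised N2 L1 larvae of C. elegans (50 per well) grew for 48 h at 20°C. Extinction was read for every worm on the Biosort, with debris removed by a growth model. Natural-log values averaged per well gave mean size, which was corrected per plate by subtracting the vehicle control mean and adding 6.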

[2] = test system: Caenorhabditis elegans N2; assay: AC50 for larval growth inhibition (Hill fit); higher = less potent
Method in brief: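 AC50 values come from a constrained Hill fit by weighted genetic-algorithm regression and are censored when out of range. The fit used only wells with at least 10 worms. Each well of a 96-well plate held 50 synchronised C. elegans N2 L1 larvae in K-medium with killed OP50, 1% DMSO and 0.5–200 µM chemical for 48 h at 20°C. A COPAS Biosort recorded each worm's size as extinction, which was log-transformed and averaged per well.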

[3] = test system: Caenorhabditis elegans N2; assay: lowest effective concentration for larval growth inhibition (size below effect threshold); higher = less potent
Method in brief: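 C. elegans N2 L1 larvae (50 per 96-well) were grown 48 h at 20°C in K-medium with killed bacteria, 1% DMSO and 0.5, 1, 5, 10, 50, 100 or 200 µM chemical. The Biosort measured per-worm extinction as size, and these were log-transformed into well means. The lowest effective concentration is the first dose where the plate-adjusted mean size drops under the 5.665 threshold and stays under it at higher doses.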

Structure (SMILES) | mean nematode size ln(EXT) (ln) ([1]; 0.5 µM) | mean nematode size ln(EXT) (ln) ([1]; 1 µM) | mean nematode size ln(EXT) (ln) ([1]; 5 µM) | mean nematode size ln(EXT) (ln) ([1]; 10 µM) | mean nematode size ln(EXT) (ln) ([1]; 50 µM) | mean nematode size ln(EXT) (ln) ([1]; 100 µM) | mean nematode size ln(EXT) (ln) ([1]; 200 µM) | AC50 for larval growth inhibition [2] | lowest effective concentration [3]
C[Si]1(C)O[Si](C)(C)O[Si](C)(C)O[Si](C)(C)O1 [Octamethylcyclotetrasiloxane] | 5.99 | 5.98 | 5.96 | 5.97 | 5.98 | 6.05 | 4.48 | 183 µM | 200 µM
CCC(=O)Nc1ccc(Cl)c(Cl)c1 [Propanil] | 5.8 | 5.75 | 5.7 | 5.93 | 6 | 5.96 | 5.04 | > 200 µM | 200 µM
NC(=Nc1ccccc1)Nc1ccccc1 [1,3-Diphenylguanidine] | 5.67 | 5.74 | 5.62 | 5.6 | 5.63 | 5.64 | 5.55 | 16.6 µM | 5 µM
O=[N+]([O-])c1c(Cl)c(Cl)c(Cl)c(Cl)c1Cl [Quintozene] | 5.85 | 5.74 | 5.72 | 5.88 | 5.93 | 5.94 | 5.11 | 194 µM | 200 µM
CCN(CC)N=O [N-Nitrosodiethylamine] | 5.96 | 5.9 | 5.89 | 5.87 | 5.77 | 5.75 | 5.66 | > 200 µM | 200 µM
Clc1cccc(C(Cl)(Cl)Cl)n1 [Nitrapyrin] | 5.36 | 5.48 | 5.3 | 5.47 | 5.92 | 5.54 | 4.05 | 108 µM | 100 µM
Clc1ccc(C(c2ccccc2Cl)C(Cl)(Cl)Cl)cc1 (configuration not stated) [o,p'-DDT] | 5.7 | 5.89 | 5.78 | 5.19 | 4.4 | 4.09 | 3.85 | 24.1 µM | 10 µM
CC(C)N(Cc1ccccc1)C(=O)C(C)(C)C [Butam] | 5.94 | 5.88 | 5.91 | 5.86 | 5.88 | 5.86 | 5.61 | > 200 µM | 200 µM
O=C(O)c1cccc(C(=O)O)c1 [Isophthalic acid] | 5.93 | 5.83 | 5.85 | 5.87 | 5.8 | 5.82 | 4.8 | > 200 µM | 200 µM
O=C(O)[C@@H]1[C@H](C(=O)O)[C@H]2CC[C@@H]1O2 [Endothal] | 5.86 | 5.85 | 5.91 | 5.82 | 5.56 | 5.71 | 5.15 | > 200 µM | 200 µM
Cc1ccccc1CO[C@@H]1C[C@@]2(C(C)C)CCC1(C)O2 [Cinmethylin] | 5.94 | 5.99 | 6 | 6.07 | 5.92 | 5.77 | 4.9 | > 200 µM | 200 µM
OC[C@@H](O)[C@@H](O)[C@H](O)[C@H](O)CO [D-Mannitol] | 5.94 | 5.89 | 5.93 | 5.96 | 5.93 | 5.94 | 5.42 | > 200 µM | 200 µM
CCCCC(CC)COC(=O)c1ccc(C(=O)OCC(CC)CCCC)c(C(=O)OCC(CC)CCCC)c1 (configuration not stated) [Tris(2-ethylhexyl)trimellitate] | 5.91 | 5.93 | 5.94 | 5.81 | 5.93 | 5.87 | 5.53 | > 200 µM | 200 µM
Cc1cnc(C2=NC(=O)C(C)(C(C)C)N2)c(C(=O)O)c1 (configuration not stated) [Imazapic] | 5.98 | 6.06 | 6.04 | 6.23 | 5.45 | 4.31 | 3.54 | 79.6 µM | 50 µM
On1ccccc1=S [Sodium (2-pyridylthio)-N-oxide] | 5.88 | 5.86 | 5.84 | 5.87 | 5.74 | 5.74 | 5.51 | > 200 µM | 200 µM
C1=CCCC=CCCC=CCC1 [1,5,9-Cyclododecatriene] | 5.89 | 5.9 | 5.9 | 5.83 | 5.92 | 5.86 | 5.34 | > 200 µM | 200 µM
CCC(C)(c1ccc(O)cc1)c1ccc(O)cc1 [Bisphenol B] | 5.9 | 5.81 | 5.9 | 5.74 | 5.87 | 5.14 | 4.74 | 87.1 µM | 100 µM
CC(C)=CC1C(C(=O)OCc2coc(Cc3ccccc3)c2)C1(C)C (configuration not stated) [Resmethrin] | 5.75 | 5.64 | 5.46 | 5.58 | 5.84 | 5.8 | 4.98 | > 200 µM | 200 µM
COC(=O)NC(=S)Nc1ccccc1NC(=S)NC(=O)OC [Thiophanate-methyl] | 5.88 | 5.84 | 5.76 | 5.87 | 5.83 | 5.73 | 5.41 | > 200 µM | 200 µM
CC(C)N1C(=O)N(c2ccccc2)CS/C1=N\C(C)(C)C [Buprofezin] | 5.88 | 5.75 | 5.68 | 5.8 | 5.93 | 6.04 | 3.51 | 181 µM | 200 µM
CC(C)N1C(=O)c2ccccc2NS1(=O)=O [Bentazone] | 6.05 | 5.93 | 5.96 | 6 | 6.01 | 6.05 | 5.55 | > 200 µM | 200 µM
CC(C)(C)C(=O)C(Oc1ccc(Cl)cc1)n1cncn1 (configuration not stated) [Triadimefon] | 5.76 | 5.75 | 5.57 | 5.71 | 5.98 | 5.91 | 5.36 | > 200 µM | 200 µM
COP(=S)(OC)SCn1nnc2ccccc2c1=O [Azinphos-methyl] | 6.09 | 6.12 | 6.04 | 5.95 | 5.61 | 5.49 | 3.9 | 170 µM | 50 µM
